In patent publication US4012284A (Societa' Farmaceutici Italia, S.p.A., priority 1962, dated 1977):
Structures can show the parent of a compound that is named as a salt.

Experiment: Solubility
Assay type: physicochemical

Row | solubility (in benzene, aliphatic esters, ethyl ether) | solubility (in butanol, acetone) | solubility (in methanol, ethanol, chloroform) | solubility (in petroleum ether) | SMILES | solubility in water | solubility (in chloroform, acetone, benzol and non-polar solvents) | solubility (in methanol, aqueous alcohols) | solubility (in lower aliphatic alcohols, halogenated hydrocarbon (chloroform), ketones (acetone, methylethylketone))
1 | scarcely soluble | less soluble | soluble | insoluble | COc1cccc2c1C(=O)c1c(O)c3c(c(O)c1C2=O)C[C@@](O)(C(C)=O)C[C@@H]3O [Daunomycinone, daunomycinone] | insoluble |  |  | 
2 |  |  |  |  | COc1cccc2c1C(=O)c1c(O)c3c(c(O)c1C2=O)C[C@@](O)(C(C)=O)C[C@@H]3O[C@H]1C[C@H](N)[C@H](O)[C@H](C)O1 [F.I. 1762 hydrochloride] | soluble | insoluble | soluble | 
3 |  |  |  |  | COc1cccc2c1C(=O)c1c(O)c3c(c(O)c1C2=O)C[C@@](O)(C(C)=O)C[C@@H]3O[C@H]1C[C@H](N)[C@H](O)[C@H](C)O1 [F.I. 1762 picrate] |  |  |  | soluble
